Results reported in patent publication US20040204486A1, “Anandamide and structurally related lipids as vanilloid receptor modulators” (priority 2000, published 2004).
Like-named read-outs stand apart in the source and are kept apart here. No end group written: not given here.

Experiments:
[1] = system: rat hepatic artery; assay: Recording of tension: relaxation of isolated rat hepatic artery contracted with phenylephrine; conditions: for EC50: read-out: pEC50 of relaxation (converted); for effect on anandamide-induced relaxation / effect on AM404-induced relaxations: capsaicin 10 μM pre-treatment; for effect on anandamide-induced relaxation: 8-37 CGRP 2 μM; for effect on AM404-induced relaxations: 8-37 CGRP 3 μM, SR141716A 0.3 μM; for vasodilator response (relaxation): α-latrotoxin 1 nM
[2] = biological target: cannabinoid CB1 receptors (Homo sapiens, UniProt P21554); conditions: cited from earlier work
Sequence of cannabinoid CB1 receptors (P21554 whole entry): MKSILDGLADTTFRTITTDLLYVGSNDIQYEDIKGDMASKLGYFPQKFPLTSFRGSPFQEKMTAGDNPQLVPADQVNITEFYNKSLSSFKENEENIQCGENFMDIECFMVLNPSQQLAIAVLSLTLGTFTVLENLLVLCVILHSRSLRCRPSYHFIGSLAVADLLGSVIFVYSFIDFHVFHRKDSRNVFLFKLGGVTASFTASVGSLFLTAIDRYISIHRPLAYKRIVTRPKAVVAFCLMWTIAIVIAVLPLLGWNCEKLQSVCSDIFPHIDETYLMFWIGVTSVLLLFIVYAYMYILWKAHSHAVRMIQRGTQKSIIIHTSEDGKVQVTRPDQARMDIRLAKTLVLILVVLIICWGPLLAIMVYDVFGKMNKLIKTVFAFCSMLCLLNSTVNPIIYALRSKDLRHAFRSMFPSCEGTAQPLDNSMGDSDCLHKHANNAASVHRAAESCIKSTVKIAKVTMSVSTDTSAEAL

[3] = system: rat mesenteric artery; assay: Recording of tension: relaxation of isolated rat mesenteric artery contracted with phenylephrine; conditions: for effect on relaxant effects of 1-arachidonylglycerol and 2-arachidonylglycerol: rat mesenteric arteries, capsazepine 1 μM; for effect on relaxant effects of 1-arachidonylglycerol and 2-arachidonylglycerol / effect on anandamide-induced relaxation: capsaicin 10 μM pre-treatment; for effect on anandamide-induced relaxation: 8-37 CGRP 2 μM
[4] = system: guinea pig basilar artery; assay: Recording of tension: relaxation of isolated guinea pig basilar artery contracted with prostaglandin F2α; conditions: for effect on anandamide-induced relaxation: capsaicin 10 μM pre-treatment, 8-37 CGRP 2 μM; for Emax / EC50: Cavia porcellus; for Emax: read-out: Emax of relaxation, guinea pig basilar artery; for EC50: read-out: pEC50 of relaxation, guinea pig basilar artery (converted)
[5] = system: CGRP release from perivascular sensory nerves; assay: Measurement of CGRP release from rat hepatic artery segments (radioimmunoassay)
Procedure: Measurement of CGRP and cyclic AMP.
After 10 minutes the segments were removed and the physiological salt solution was evaporated.

[6] = system: cyclic AMP content; assay: Measurement of cyclic AMP content in rat hepatic artery segments
[7] = biological target: T1, vanilloid receptors (Rattus norvegicus, UniProt O35433); assay: Schild analysis of capsazepine antagonism of relaxation in rat hepatic artery; conditions: for slope of the Schild regression line: mean±SEM; for Kb: pA2 (Schild plot)
T1 construct: To determine whether native vanilloid receptors might be involved in the action of anandamide; from tissue; host or cells: hepatic artery ring segments from female Wistar-Hannover rats
T1 sequence (O35433 whole entry): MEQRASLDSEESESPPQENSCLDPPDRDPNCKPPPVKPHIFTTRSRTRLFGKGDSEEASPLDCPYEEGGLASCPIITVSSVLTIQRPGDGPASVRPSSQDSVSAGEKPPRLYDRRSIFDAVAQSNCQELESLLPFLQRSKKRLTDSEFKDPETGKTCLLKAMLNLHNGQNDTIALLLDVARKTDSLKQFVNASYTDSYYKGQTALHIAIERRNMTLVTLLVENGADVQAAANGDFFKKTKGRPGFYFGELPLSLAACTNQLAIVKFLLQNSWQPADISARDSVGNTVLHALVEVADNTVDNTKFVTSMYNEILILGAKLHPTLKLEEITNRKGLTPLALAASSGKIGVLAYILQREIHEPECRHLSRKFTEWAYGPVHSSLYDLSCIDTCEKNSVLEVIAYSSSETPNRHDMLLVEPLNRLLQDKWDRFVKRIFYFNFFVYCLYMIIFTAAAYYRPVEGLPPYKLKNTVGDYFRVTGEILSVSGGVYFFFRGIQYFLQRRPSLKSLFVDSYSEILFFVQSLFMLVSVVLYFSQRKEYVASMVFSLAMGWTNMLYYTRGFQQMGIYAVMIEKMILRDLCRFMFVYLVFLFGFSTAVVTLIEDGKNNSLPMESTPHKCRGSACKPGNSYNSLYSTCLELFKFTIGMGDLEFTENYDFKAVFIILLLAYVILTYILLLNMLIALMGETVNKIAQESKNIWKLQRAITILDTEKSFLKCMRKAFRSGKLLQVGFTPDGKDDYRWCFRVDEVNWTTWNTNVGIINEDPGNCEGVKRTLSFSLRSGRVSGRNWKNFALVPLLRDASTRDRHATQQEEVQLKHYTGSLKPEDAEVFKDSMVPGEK
Procedure: Recording of tension. Experiments were performed on hepatic (400 μm outer diameter) and mesenteric (200 μm outer diameter) arteries from female Wistar-Hannover rats (200-250 g) and on basilar arteries (300 μm outer diameter) from male guinea pigs. […] All experiments were performed in the presence of N^G-nitro-L-arginine (0.3 mM) and indomethacin (10 μM) to eliminate any contribution of nitric oxide and cyclooxygenase products, respectively (refs. 38, 23). Relaxant responses were studied in preparations contracted with phenylephrine (rat hepatic and mesenteric arteries) and prostaglandin F2α (guinea pig basilar artery) (refs. 38, 43). When stable contractions were obtained, agonists were added cumulatively to determine concentration-response relationships.
Some preparations were pre-treated with capsaicin for 1 hour followed by washout for 20 minutes. Each vessel segment was exposed to only one treatment. The experiments were carried out with the approval of the local ethics committee.
Calculations and statistics. Relaxations are expressed as percentage reversal of the prevailing contraction (100% indicates a complete reversal to basal tension). […] Data are presented as means±s.e.mean (vertical lines in figures), and n indicates the number of vascular segments (animals) examined. pA2 and slope values of the Shild plots were estimated according to the Jackknife method (ref. 46). Statistical analysis was performed by using Student's t-test (two-tailed), Mann-Whitney U-test, or analysis of variance (ANOVA) on log transformed values (cyclic AMP) followed by Bonferroni Dunn's post hoc test (Statview 4.12). Statistical significance was accepted when P<0.05.

[8] = Rattus norvegicus, control (agonist alone)
[9] = rat mesenteric artery, capsazepine 3 μM
[10] = guinea pig basilar artery, 10 μM
[11] = guinea pig basilar artery, capsazepine 3 μM
[12] = Rattus norvegicus, in presence of SR141716A (0.3 μM)
[13] = in presence of SR141716A (0.3 μM)
[14] = segments pre-treated with capsaicin (10 μM)

Molecule: CCCCCC=CCC=CCC=CCC=CCCCC(=O)Nc1ccc(O)cc1 [AM404, N-(4-hydroxyphenyl)-5,8,11,14-eicosatetraenamide]
- vasodilator potency compared to anandamide [1]: ~10 times
- Emax [1, 8]: 97 ± 2%
- EC50 [1, 8]: 39.8 nM
- effect on anandamide-induced relaxation ([1]; capsazepine 3 μM): inhibited this response
- pEC50 of relaxation ([1]; control (agonist alone)): 7.3±0.2
- pEC50 of relaxation ([1]; in presence of capsazepine (3 μM)): 6.4±0.2
- Ki [2]: 1760 nM

Molecule: COc1cc(CNC(=O)CCCC/C=C/C(C)C)ccc1O [capsaicin]
- relaxation at 10 μM ([1]; 10 μM): completely relaxed
- Emax [1, 8]: 99 ± 1%
- Emax ([1]; Rattus norvegicus, in presence of SR141716A (10 μM)): 90 ± 3%
- effect on anandamide-induced relaxation ([1]; capsazepine 3 μM): abolished
- effect on AM404-induced relaxations ([1]; capsazepine 3 μM): abolished
- EC50 ([1]; control (agonist alone)): 4.27 nM
- pEC50 of relaxation ([1]; in presence of SR141716A (10 μM)): 7.42±0.12
- effect on relaxant effects of 1-arachidonylglycerol and 2-arachidonylglycerol [3]: abolished
- effect on anandamide-induced relaxation [3, 9]: abolished
- relaxation at 10 μM [4, 10]: completely relaxed
- effect on anandamide-induced relaxation [4, 11]: abolished

Molecule: 8-37 CGRP: selective CGRP receptor antagonist (VTHRLAGLLSRSGGVVKNNFVPTNVGSKAF; ends and bridges not checked; UniProt P06881 90-119, looked up, fragment)
- effect on anandamide-induced relaxation ([1]; capsazepine 3 μM): inhibited
- effect on AM404-induced relaxations ([1]; capsazepine 3 μM): abolished
- effect on anandamide-induced relaxation [3, 9]: inhibited
- effect on anandamide-induced relaxation [4, 11]: inhibited

Molecule: Cc1c(C(=O)NN2CCCCC2)nn(-c2ccc(Cl)cc2Cl)c1-c1ccc(Cl)cc1.Cl [SR141716A, N-(piperidin-1-yl)-5-(4-chlorophenyl)-1-(2,4-dichlorophenyl)-4-methyl-1H-pyrazole-3-carboxamide hydrochloride]
- effect on AM404-induced relaxations ([1]; capsazepine 3 μM): without effect

Molecule: CCCCC/C=C\C/C=C\C/C=C\C/C=C\CCCC(=O)O [arachidonic acid]
- relaxation at 10 μM ([1]; 10 μM): inactive
- relaxation at 10 μM [4, 10]: inactive

Molecule: CCCCCCC(C)(C)c1cc(O)c2c(c1)OC(C)(C)[C@@H]1CC=C(CO)C[C@@H]21 [HU 210]
- relaxation [1]: did not produce any relaxation
- relaxation ([4]; guinea pig basilar artery): did not produce any relaxation

Molecule: CCCCCCCCCCCCCCCC(=O)NCCO [palmitylethanolamide]
- relaxation [1]: did not produce any relaxation
- relaxation ([4]; guinea pig basilar artery): did not produce any relaxation

Molecule: CCCCC/C=C\C/C=C\C/C=C\C/C=C\CCCC(=O)NCCO [anandamide, arachidonylethanolamide]
- relaxation at 10 μM ([1]; 10 μM): completely relaxed
- Emax [1, 8]: 100 ± 1%
- EC50 [1, 8]: 355 nM
- Emax [1, 12]: 97 ± 1%
- pEC50 of relaxation ([1]; control (agonist alone)): 6.49±0.01
- pEC50 of relaxation [1, 13]: 6.44±0.12
- Emax ([4]; control (agonist alone)): 92 ± 3%
- Emax [4, 13]: 91 ± 2%
- EC50 ([4]; control (agonist alone)): 955 nM
- EC50 [4, 13]: 776 nM
- relaxation at 10 μM [4, 10]: completely relaxed
- release of CGRP ([5]; anandamide 10 μM, 10 minute exposure): significant release of CGRP
- release of CGRP after capsaicin pre-treatment [5, 14]: absent
- tissue content of cyclic AMP ([6]; anandamide 10 μM or CGRP 10 nM, 5 minutes): increase in tissue content of cyclic AMP
- tissue content of cyclic AMP after capsaicin pre-treatment [6, 14]: absent

Molecule: Oc1cc2c(cc1O)CN(C(=S)NCCc1ccc(Cl)cc1)CCC2 [capsazepine]
- effect on anandamide-induced relaxation ([1]; capsazepine 3 μM): significantly inhibited
- effect on AM404-induced relaxations ([1]; capsazepine 3 μM): significant right-ward shift
- effect on capsaicin-induced relaxation ([1]; capsazepine 3 μM): significantly inhibited
- effect on relaxant effects of 1-arachidonylglycerol and 2-arachidonylglycerol [3]: inhibited
- effect on anandamide-induced relaxation [3, 9]: significantly inhibited
- effect on capsaicin-induced relaxation [3, 9]: significantly inhibited
- effect on anandamide-induced relaxation [4, 11]: significantly inhibited
- effect on capsaicin-induced relaxation [4, 11]: significantly inhibited
- effect on anandamide-induced release of CGRP ([5]; capsazepine 10 μM): inhibited
- slope of the Schild regression line ([7]; capsaicin as agonist): 2.12±0.36
- slope of the Schild regression line ([7]; methanandamide as agonist): 2.41±0.32
- Kb ([7]; capsaicin as agonist): 575 nM
- Kb ([7]; methanandamide as agonist): 457 nM

Molecule: NCCO [ethanolamine]
- relaxation at 10 μM ([1]; 10 μM): inactive
- relaxation at 10 μM [4, 10]: inactive

Molecule: Cc1c(C(=O)c2cccc3ccccc23)c2cccc3c2n1[C@H](CN1CCOCC1)CO3 [WIN 55,212-2]
- relaxation [1]: did not produce any relaxation
- relaxation ([4]; guinea pig basilar artery): did not produce any relaxation

Molecule: CCCCC/C=C\C/C=C\C/C=C\C/C=C\CCCCOCC(O)CO (stereo not shown) [1-arachidonylglycerol]
- vasodilator action ([3]; rat mesenteric arteries contracted with phenylephrine): vasodilators

Molecule: CCCCCCC(C)(C)c1ccc([C@@H]2C[C@H](O)CC[C@H]2CCCO)c(O)c1 [CP 55,940]
- relaxation at 10 μM ([1]; 10 μM): significant relaxation
- relaxation after pre-treatment with capsaicin ([1]; 10 μM, capsaicin (10 μM) pre-treatment): resistant to pre-treatment with capsaicin
- relaxation at 10 μM [4, 10]: significant relaxation
- relaxation after pre-treatment with capsaicin ([4]; guinea pig basilar artery, 10 μM, capsaicin (10 μM) pre-treatment): resistant to pre-treatment with capsaicin

Molecule: CCCCC/C=C\C/C=C\C/C=C\C/C=C\CCCC(=O)N[C@H](C)CO [methanandamide]
- Emax [1, 8]: 99 ± 1%
- EC50 [1, 8]: 316 nM
- Emax [1, 12]: 99 ± 1%
- Emax of relaxation ([1]; control (agonist alone)): 97±1%
- pEC50 of relaxation ([1]; control (agonist alone)): 6.53±0.08
- pEC50 of relaxation [1, 13]: 6.30±0.04

B1: α-latrotoxin (protein, UniProt P23631 21-1199, looked up)
Alpha-latrotoxin-Lt1a: EGEDLTLEEKAEICSELELQQKYVDIASNIIGDLSSLPIAGKIAGTIAAAAMTATHVASGRLDIEQTLLGCSDLPFDQIKEVLENRFNEIDRKLDSHSAALEEITKLVEKSISVVEKTRKQMNKRFDEVMKSIQDAKVSPIISKINNFARYFDTEKERIRGLKLNDYILKLEEPNGILLHFKESRTPTDDSLQAPLFSIIEEGYAVPKSIDDELAFKVLYALLYGTQTYVSVMFFLLEQYSFLANHYYEKGYLEKYDEYFNSLNNVFLDFKSSLVGTGTSNNEGLLDRVLQVLMTVKNSEFLGLEKNGVDEMLNEKINLFNKIKEEIEGKQKMTLSETPENFAQISFDKDITTPIGDWRDGREVRYAVQYASETLFSKISHWSDPVSVREKACPTLRMPVDQTRRNVLVFRKFDSSKPQLVGEITPYLSNFIDIDRDLYNAASNPDSAVGFKEFTKLNYDGANIRATFDHGRTVFHAAAKSGNDKIMFGLTFLAKSTELNQPDKKGYTPIHVAADSGNAGIVNLLIQRGVSINSKTYHFLQTPLHLAAQRGFVTTFQRLMESPEININERDKDGFTPLHYAIRGGERILEAFLNQISIDVNAKSNTGLTPFHLAIIKNDWPVASTLLGSKKVDINAVDENNITALHYAAILGYLETTKQLINLKEINANVVSSPGLLSALHYAILYKHDDVASFLMRSSNVNVNLKALGGITPLHLAVIQGRKQILSLMFDIGVNIEQKTDEKYTPLHLAAMSKYPELIQILLDQGSNFEAKTNSGATPLHLATFKGKSQAALILLNNEVNWRDTDENGQMPIHGAAMTGLLDVAQAIISIDATVVDIEDKNSDTPLNLAAQNSHIDVIKYFIDQGADINTRNKKGLAPLLAFSKKGNLDMVKYLFDKNANVYIADNDGMNFFYYAVQNGHLNIVKYAMSEKDKFEWSNTDNNRRDECPNEECAISHFAVCDAVQFDRIEIVKYFVGTLGNFAICGPLHQAARYGHLDIVKYLVEEEFLSVDGSKTDTPLCYASENGHFTVVQYLVSNGAKVNHDCGNGMTAIDKAITKNHLQVVQFLAANGVDFRRKNSRGTTPFLTAVAENALHIAEYLIREKRQDININEQNVDKDTALHLAVYYKNLQMIKLLIKYGIDVTIRNAYDKTALDIAIDAKFSNIVEYLKTKSGKFRR
- vasodilator response (relaxation) ([1]; CGRP 8-37 (2 μM)): −8±3%
- vasodilator response (relaxation) ([1]; capsaicin pre-treatment): −16±8%
- vasodilator response (relaxation) ([1]; capsazepine (3 μM)): 93±2%
- vasodilator response (relaxation) ([1]; control): 98±1%
